In ChEMBL document CHEMBL1133712, “Monocyclic L-nucleosides with type 1 cytokine-inducing activity” (2000):

Assays:
Type in all cases: functional, Homo sapiens
Set-up in all cases: concentration or dose not given beside the values
[1] = Compounds was tested for the effect of L-nucleosides of ribavirin on SEB (staphylococcal enterotoxin B)-stimulated T-cell expression of the type 1 cytokine IFN-gamma
[2] = Compounds was tested for the effect of L-nucleosides of ribavirin on SEB (staphylococcal enterotoxin B)-stimulated T-cell expression of the type 1 cytokine IL-2.
[3] = Compounds was tested for the effect of L-nucleosides of ribavirin on SEB (staphylococcal enterotoxin B)-stimulated T-cell expression of the type 1 cytokine TNF-alpha

SMILES | Control [1] | Control [2] | Control [3]
NC(=O)c1ncn([C@@H]2C[C@@H](O)[C@H](CO)O2)n1 | 110% | 108% | 119%
NC(=O)c1ncn([C@H]2O[C@@H](CO)[C@H](O)[C@@H]2O)n1 | 122% | 131% | 144%
Cl.N=C(N)c1ncn([C@H]2O[C@@H](CO)[C@H](O)[C@@H]2O)n1 | 128% | 133% | 120%
NC(=O)c1ncn([C@H]2O[C@@H](CO)C[C@@H]2O)n1 | 114% | 115% | 109%
NC(=O)c1ncn([C@H]2O[C@@H](CO)[C@@H](O)[C@@H]2O)n1 | 119% | 100% | 132%
NC(=O)c1ncn([C@@H]2O[C@H](CO)[C@@H](O)[C@H]2O)n1 [RIBAVIRIN] | 131% | 143% | 124%
